We go through 3 molecules from patent US8278069B2, “Identification of a β-1,3-N-acetylgalactosaminyltransferase (CGTE) from Campylobacter jejuni LIO87” (National Research Council of Canada, priority 2005, dated 2012).

Test [1] relates to CgtE. Description: Characterization of CgtE enzymatic activity (pH, divalent cations, truncation). The test is classed as biochemical, Campylobacter jejuni LIO87. Particulars: divalent cations necessary for activity. The source says:
CgtE enzymatic activity was characterized further. CgtE activity was optimal from pH 7 to 7.5.

Test [2] concerns CgtE (CJL-107). Description: Substrate specificity of CgtE (CJL-107), acceptor and donor substrates. The format is biochemical, Campylobacter jejuni LIO87. Particulars: for Activity: enzyme CgtE (CJL-107). The source says:
A nucleic acid encoding a CgtE polypeptide, or a subsequence thereof, can be characterized by assaying for the expressed product. Assays based on the detection of the physical, chemical, or immunological properties of the expressed protein can be used. For example, one can identify a cloned CgtE nucleic acid B, by the ability of a protein encoded by the nucleic acid to catalyze the transfer of a galactose moiety from a donor substrate to an acceptor substrate. In one method, capillary electrophoresis is employed to detect the reaction products. This highly sensitive assay involves using either saccharide or disaccharide aminophenyl derivatives which are labeled with fluorescein as described in Wakarchuk et al. (1996) J. Biol. Chem. 271 (45): 28271-276. To assay for CgtE activity, Galα-Lac-FCHASE or GalNAc-α-FCHASE is used as a substrate. The reaction products of other glycosyltransferases can be detected using capillary electrophoresis, e.g., to assay for a Neisseria lgtC enzyme, either FCHASE-AP-Lac or FCHASE-AP-Gal can be used, whereas for the Neisseria lgtB enzyme an appropriate reagent is FCHASE-AP-GlcNAc (Wakarchuk, supra). To assay for α2,8-sialyltransferase, GM3-FCHASE is used as a substrate. See, e.g., U.S. Pat. No. 6,503,744, which is herein incorporated by reference. Other methods for detection of oligosaccharide reaction products include thin layer chromatography and GC/MS and are disclosed in U.S. Pat. No. 6,503,744, which is herein incorporated by reference.
CgtE used both Galα-Lac-FCHASE and GalNAc-α-FCHASE as acceptor substrate. CgtE enzymatic activity was higher when Galα-Lac-FCHASE was used as the acceptor substrate.

Chain of CgtE (CJL-107) (as listed by the source): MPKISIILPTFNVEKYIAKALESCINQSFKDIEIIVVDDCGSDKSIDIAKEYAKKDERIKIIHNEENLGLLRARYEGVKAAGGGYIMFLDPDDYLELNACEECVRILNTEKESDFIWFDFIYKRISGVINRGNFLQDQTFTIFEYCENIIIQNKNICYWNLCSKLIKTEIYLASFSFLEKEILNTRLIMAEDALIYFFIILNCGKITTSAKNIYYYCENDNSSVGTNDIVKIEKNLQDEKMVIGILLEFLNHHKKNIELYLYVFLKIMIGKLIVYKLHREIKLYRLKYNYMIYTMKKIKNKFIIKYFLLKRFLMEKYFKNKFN

Consider `[Cl][Mn][Cl]` [MnCl2], for which the “CgtE activity with divalent cation relative to MgCl2” value in test [1] is “two-fold higher”.

With GalNAc-α-FCHASE, the Activity is on record as 0.6 mU/mL in test [2] (donor UDP-Gal) and 0.3 mU/mL in test [2] (donor UDP-GalNAc).

For Galα-Lac-FCHASE, the “CgtE enzymatic activity, comparison of acceptor substrates” value in test [2] (Galα-Lac-FCHASE versus GalNAc-α-FCHASE as acceptor) is on record as “higher”. In addition, the Activity is recorded as 7.0 mU/mL in test [2] (donor UDP-Gal) and 63.5 mU/mL in test [2] (donor UDP-GalNAc).
